According to publication PMC3154929, “Phosphatase-Coupled Universal Kinase Assay and Kinetics for First-Order-Rate Coupling Reaction” (PLoS ONE, 2011):

Target: T1, human glucokinase (GCK) (Homo sapiens, UniProt P35557)
T1 construct: V16 to Q465, N-terminal 6xHis tag, expressed in E. coli
T1 sequence (P35557 16-465): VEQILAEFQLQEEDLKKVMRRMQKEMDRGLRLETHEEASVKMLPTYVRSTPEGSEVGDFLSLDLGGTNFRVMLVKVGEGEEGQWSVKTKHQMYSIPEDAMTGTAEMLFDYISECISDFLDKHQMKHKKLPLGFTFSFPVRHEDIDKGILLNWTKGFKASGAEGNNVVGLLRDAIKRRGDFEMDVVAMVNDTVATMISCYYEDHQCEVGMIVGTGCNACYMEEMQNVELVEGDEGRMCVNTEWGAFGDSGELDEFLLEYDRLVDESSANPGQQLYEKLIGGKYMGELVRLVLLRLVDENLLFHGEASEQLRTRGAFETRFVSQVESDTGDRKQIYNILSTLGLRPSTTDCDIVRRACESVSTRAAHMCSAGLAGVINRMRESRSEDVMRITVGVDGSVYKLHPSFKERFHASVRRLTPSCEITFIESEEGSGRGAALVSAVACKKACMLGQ
Experiment: CD39L2-coupled malachite green phosphate assay, OD620
Assay type: biochemical
Details: 0.12 mM ATP, 10 mM MgCl2, 10 mM CaCl2, 150 mM NaCl, 25 mM Tris pH 7.5, room temperature

Work on `OC[C@H]1OC(O)[C@H](O)[C@@H](O)[C@@H]1O` (stereo partly shown) [glucose] yielded a Km of 7.23 ± 1.44 mM.
